The values that follow come from publication PMC4192606, “Agrobacterium Uses a Unique Ligand-Binding Mode for Trapping Opines and Acquiring A Competitive Advantage in the Niche Construction on Plant Host” (PLoS Pathogens, 2014).

Assay [1] addresses T1, NocT (Agrobacterium fabrum, UniProt P35120).
T1 construct: The X-ray structures of the mature free-liganded NocT; made in house; host or cells: E. coli Rosetta pLysS
Description: KD measurement by isothermal titration calorimetry (ITC), wild-type NocT. The format is binding, Agrobacterium tumefaciens C58. As to the method:
ITC experiments were performed with an ITC200 isothermal titration calorimeter from MicroCal Llc (Northampton, MA). The experiments were carried out at 20°C. Protein concentration in the microcalorimeter cell (0.2 ml) varied from 100 to 150 µM. Nineteen injections of 2 µl of the ligand solution concentration from 1.5 to 1.6 mM were performed at intervals of 180 s while stirring at 1000 rpm. The experimental data were fitted to theoretical titration curves with software supplied by MicroCal (ORIGIN). This software uses the relationship between the heat generated by each injection and ΔH (enthalpy change in Kcal.mol^−1), Ka (the association binding constant in M^−1), n (the number of binding sites), total protein concentration and free and total ligand concentrations.
For orientation: Isothermal titration calorimetry measures the heat released or taken up as one component is titrated into another.

In assay [2] the target is T1, NocT. Description: KD measurement by intrinsic protein fluorescence titration, wild-type NocT. The assay is classed as binding, Agrobacterium tumefaciens C58. The settings on record: 25°C, 25 mM Tris-HCl pH 8.0, 150 mM NaCl, 5 µM protein, triplicates; for Kd: read-out: KD (fluorescence titration), NocT wt. How it is done: (§1) Ligand-NocT interaction was monitored by autofluorescence by exciting the protein at a wavelength of 295 nm and monitoring the quenching of fluorescence emission of tryptophan residues at 340 nm. All experiments were performed at 25°C in 25 mM Tris-HCl pH 8.0 and 150 mM NaCl with a fixed amount of proteins (5 µM) and increasing concentrations of ligand using a SpectraMax M5 microplate reader (Molecular Devices). […] Fluorescence measurements were done in triplicates. The data were analysed using Origin 7 software and fitted to the equation f = ΔFluorescencemax * abs(x)/(KD+abs(x)).

The subject of assay [3] is A. tumefaciens C58 nocT mutant. Description: Growth assay on opine as sole carbon and nitrogen source, nocT mutant. The assay is classed as cell-based, Agrobacterium tumefaciens C58. To be noted: opine as sole source of carbon and nitrogen at 3 mM, AB medium, OD600 after 24 hours. An excerpt: (§2) The A. tumefaciens C58 derivatives carrying pTi-accR::Gm and pTi::Gm (used as C58-control in plant assay) in which the genes accR (atu6138) and atu6147 were disrupted by inserting a gentamicin resistance cassette were already constructed. The A. tumefaciens C58 derivatives harbouring the Ti-plasmid pTi-nos::Km, pTi-ocd::Gm, pTi-nocT::Gm were obtained by insertion of a gentamicin (Gm) or kanamycin (Km) resistance cassette into the genes nos ( = atu6015), ocd ( = atu6016), and nocT ( = atu6027) as described previously.
(§3) A. tumefaciens was cultivated at 30°C in Agrobacterium broth (AB) minimal medium supplemented with ammonium chloride (1 g/L) and mannitol (2 g/L) except when an alternative source of carbon and nitrogen is indicated, or in Luria-Bertani modified medium (LBm; NaCl 5 g/L). In growth assay nopaline and pyronopaline were added as a sole carbon and nitrogen source at 3 mM (ca 1 g/L). The antibiotics gentamycin and kanamycin were added at 25 µg/mL and 50 µg/mL, respectively.

In assay [4] the test system is A. tumefaciens C58 ocd mutant. Description: Growth assay on opine as sole carbon and nitrogen source, ocd mutant. The format is cell-based, Agrobacterium tumefaciens C58. To be noted: opine as sole source of carbon and nitrogen at 3 mM, AB medium, OD600 after 24 hours.
Description: as §2, §3

In the next assay the target is T2, NocT-M117S (Agrobacterium fabrum, UniProt P35120, M117S).
T2 construct: The X-ray structures of the mature free-liganded NocT; made in house; host or cells: E. coli Rosetta pLysS
T2 sequence (P35120 26-283 M117S): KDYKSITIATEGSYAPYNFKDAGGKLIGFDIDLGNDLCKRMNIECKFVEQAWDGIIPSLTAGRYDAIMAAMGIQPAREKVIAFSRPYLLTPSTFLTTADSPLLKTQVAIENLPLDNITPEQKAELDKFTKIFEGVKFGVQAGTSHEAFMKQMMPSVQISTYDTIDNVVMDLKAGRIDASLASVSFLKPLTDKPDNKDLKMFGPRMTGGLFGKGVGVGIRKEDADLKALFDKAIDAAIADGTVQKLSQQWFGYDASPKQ
The assay can be described thus: KD measurement by fluorescence titration, NocT-M117S mutant. The format is binding, Agrobacterium tumefaciens C58.
Description: (§4) Using 5′-[…] and 5′-[…] primers, nocT gene of A. tumefaciens C58 was amplified and then cloned into pET-9aSN1 expression vector (a gift from S. Chéruel, IBBMC, University Paris Sud, Orsay, France). The pET-9aSN1-nocT was used as template to generate directed mutations with QuikChange II XL directed mutagenesis kit (Stratagene). For mutations Met117 to Ser (M117S) and Asn (M117N), the synthetic forward primers 5′–[…] and 5′-[…] and their reverse complemented primers were designed. The nucleotide sequence of all alleles was confirmed by DNA-sequence analysis (GATC, France).
as §1

In the next assay the target is T3, NocT-M117N (Agrobacterium fabrum, UniProt P35120, M117N).
T3 construct: The X-ray structures of the mature free-liganded NocT; made in house; host or cells: E. coli Rosetta pLysS
T3 sequence (P35120 26-283 M117N): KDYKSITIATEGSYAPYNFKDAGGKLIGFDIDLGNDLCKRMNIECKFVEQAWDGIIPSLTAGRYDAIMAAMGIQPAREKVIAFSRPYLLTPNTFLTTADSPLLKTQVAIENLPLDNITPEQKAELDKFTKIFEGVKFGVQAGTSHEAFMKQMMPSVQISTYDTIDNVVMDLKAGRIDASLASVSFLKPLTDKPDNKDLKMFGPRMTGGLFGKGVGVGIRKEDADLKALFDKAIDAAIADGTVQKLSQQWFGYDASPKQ
Description: KD measurement by fluorescence titration, NocT-M117N mutant. The format is binding, Agrobacterium tumefaciens C58.
Description: as §4, §1

Where [5] appears, read: 20°C, protein 100 to 150 µM, triplicates.

“And” between values parts separate entries of the source, which are not always exact repeats. Identical values can stand only once.

T1 sequence (P35120 26-283): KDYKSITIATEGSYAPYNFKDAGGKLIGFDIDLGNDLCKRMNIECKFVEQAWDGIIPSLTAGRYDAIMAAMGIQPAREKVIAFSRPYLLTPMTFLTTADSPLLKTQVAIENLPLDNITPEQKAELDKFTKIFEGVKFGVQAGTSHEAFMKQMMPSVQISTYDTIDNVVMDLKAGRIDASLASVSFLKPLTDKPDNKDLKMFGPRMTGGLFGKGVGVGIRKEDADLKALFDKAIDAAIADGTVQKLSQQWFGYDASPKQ

For `N=C(N)NCCC[C@H](N)C(=O)O` [arginine, reference compound], on NocT [1] (setting [5]), the “KD (ITC), NocT wt” value is “no interaction”. The “KD (fluorescence titration), NocT wt” value at NocT [2] is “no interaction”.

With `N[C@@H](Cc1c[nH]cn1)C(=O)O` [histidine, reference compound], on NocT [1] (setting [5]), the “KD (ITC), NocT wt” value is on record as “no interaction”.

As to `N=C(N)NCCCC(NC(CCC(=O)O)C(=O)O)C(=O)O` (centres unmarked) [nopaline], in assay [3], the “growth of nocT mutant” value is recorded as “could not grow”. The “growth of ocd mutant” value in assay [4] is given as “strongly impaired”. For the same compound, the Kd on NocT [2] was determined as 3700 nM.

Consider `NCCC[C@H](N)C(=O)O` [ornithine, reference compound], for which, on NocT [1] (setting [5]), the “KD (ITC), NocT wt” value is reported as “no interaction”.

Consider `N=C(N)NCCCC(C(=O)O)N1C(=O)CCC1C(=O)O` (centres unmarked) [pyronopaline], for which the “growth of nocT mutant” value in assay [3] is listed as “could not grow”. The “growth of ocd mutant” value in assay [4] is on record as “strongly impaired”. For the same compound, the “TΔS of binding (ITC)” value at NocT [1] (20°C) was 12.6 kcal/mol. For the same compound, the Kd is 580 ± 50 nM at NocT [1] (20°C, protein 100 to 150 µM, triplicates, read-out: KD (ITC), NocT wt); 37800 ± 9000 nM at NocT-M117S; 570 nM and 600 nM on NocT [2]; 39900 ± 7000 nM on NocT-M117N. Further, the “enthalpy of binding (ITC)” value at NocT [1] (positive enthalpy) came out at 2.1 kcal/mol. In addition, the “KD fold higher than that of the WT protein, NocT-M117S” value at NocT-M117S (mutant vs WT NocT) came to 76 fold. For the same compound, the “KD fold higher than that of the WT protein, NocT-M117N” value at NocT-M117N (mutant vs WT NocT) is given as 76 fold.
